Key:
[1] = target: T1, Glucocorticoid receptor (Homo sapiens, UniProt P04150)
T1 sequence (P04150 whole entry): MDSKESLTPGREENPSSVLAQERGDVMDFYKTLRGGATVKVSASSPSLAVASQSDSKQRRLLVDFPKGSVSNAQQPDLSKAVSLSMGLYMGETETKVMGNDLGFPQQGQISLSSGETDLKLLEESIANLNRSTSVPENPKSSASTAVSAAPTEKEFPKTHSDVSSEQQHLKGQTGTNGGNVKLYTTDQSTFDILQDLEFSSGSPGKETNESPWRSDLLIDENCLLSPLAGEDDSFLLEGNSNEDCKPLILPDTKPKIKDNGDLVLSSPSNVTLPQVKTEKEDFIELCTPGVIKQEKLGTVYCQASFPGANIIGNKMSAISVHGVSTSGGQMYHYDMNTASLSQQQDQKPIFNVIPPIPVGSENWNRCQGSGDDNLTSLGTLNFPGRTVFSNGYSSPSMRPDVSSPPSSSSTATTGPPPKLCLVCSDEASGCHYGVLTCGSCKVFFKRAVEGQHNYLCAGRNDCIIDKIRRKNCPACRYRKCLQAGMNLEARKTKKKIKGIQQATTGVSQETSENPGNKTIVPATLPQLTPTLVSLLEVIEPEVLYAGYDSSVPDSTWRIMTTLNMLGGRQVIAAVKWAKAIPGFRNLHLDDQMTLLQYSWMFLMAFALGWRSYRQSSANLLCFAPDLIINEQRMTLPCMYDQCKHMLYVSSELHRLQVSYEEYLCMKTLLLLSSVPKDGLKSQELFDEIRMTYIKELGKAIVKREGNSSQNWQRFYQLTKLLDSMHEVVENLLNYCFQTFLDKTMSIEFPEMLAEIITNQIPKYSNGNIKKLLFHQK

[2] = target: T2, Estrogen receptor (Homo sapiens, UniProt P03372)
T2 sequence (P03372 whole entry): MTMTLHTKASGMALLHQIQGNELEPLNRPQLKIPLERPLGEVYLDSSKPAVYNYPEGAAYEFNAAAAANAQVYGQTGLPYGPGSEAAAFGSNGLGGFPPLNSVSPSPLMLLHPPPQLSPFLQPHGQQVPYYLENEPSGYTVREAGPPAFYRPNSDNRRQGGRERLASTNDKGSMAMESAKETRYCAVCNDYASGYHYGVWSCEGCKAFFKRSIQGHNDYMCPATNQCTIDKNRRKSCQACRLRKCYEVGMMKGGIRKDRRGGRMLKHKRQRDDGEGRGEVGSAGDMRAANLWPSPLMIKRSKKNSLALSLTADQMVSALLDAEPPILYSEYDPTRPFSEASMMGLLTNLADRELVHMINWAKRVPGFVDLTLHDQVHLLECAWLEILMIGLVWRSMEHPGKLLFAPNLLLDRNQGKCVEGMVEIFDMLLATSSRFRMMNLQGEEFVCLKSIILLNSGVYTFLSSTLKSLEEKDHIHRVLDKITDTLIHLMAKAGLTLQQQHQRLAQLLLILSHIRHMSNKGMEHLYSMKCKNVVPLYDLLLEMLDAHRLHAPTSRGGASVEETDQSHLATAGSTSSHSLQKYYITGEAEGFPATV

[3] = target: T3, Progesterone receptor (Homo sapiens, UniProt P06401)
T3 sequence (P06401 whole entry): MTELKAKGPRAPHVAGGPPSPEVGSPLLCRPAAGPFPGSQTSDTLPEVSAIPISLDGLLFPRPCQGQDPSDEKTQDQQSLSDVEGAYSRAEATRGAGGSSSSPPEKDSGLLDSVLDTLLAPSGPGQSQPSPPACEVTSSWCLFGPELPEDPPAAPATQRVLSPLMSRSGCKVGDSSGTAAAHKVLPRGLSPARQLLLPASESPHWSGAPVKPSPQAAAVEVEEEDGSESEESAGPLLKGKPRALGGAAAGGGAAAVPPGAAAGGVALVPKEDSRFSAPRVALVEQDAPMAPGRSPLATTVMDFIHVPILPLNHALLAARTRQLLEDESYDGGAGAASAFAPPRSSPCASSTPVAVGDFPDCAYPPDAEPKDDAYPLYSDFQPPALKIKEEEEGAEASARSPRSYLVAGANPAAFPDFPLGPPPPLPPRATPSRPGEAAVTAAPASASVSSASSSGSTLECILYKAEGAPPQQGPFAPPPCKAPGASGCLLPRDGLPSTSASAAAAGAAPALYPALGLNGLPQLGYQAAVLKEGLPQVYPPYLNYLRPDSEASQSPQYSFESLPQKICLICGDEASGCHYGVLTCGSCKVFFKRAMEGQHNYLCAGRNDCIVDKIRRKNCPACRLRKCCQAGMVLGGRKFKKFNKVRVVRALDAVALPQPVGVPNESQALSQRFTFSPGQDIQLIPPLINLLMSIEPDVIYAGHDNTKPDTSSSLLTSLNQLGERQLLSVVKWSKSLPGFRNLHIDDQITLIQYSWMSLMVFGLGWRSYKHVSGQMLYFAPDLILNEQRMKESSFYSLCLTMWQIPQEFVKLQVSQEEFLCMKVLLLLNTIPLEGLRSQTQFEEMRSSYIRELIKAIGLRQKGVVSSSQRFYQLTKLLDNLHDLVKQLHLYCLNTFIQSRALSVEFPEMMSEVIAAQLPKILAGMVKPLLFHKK

[4] = target: 5-hydroxytryptamine receptor 2B (Homo sapiens, UniProt P41595); format: functional, cell-based
Sequence of 5-hydroxytryptamine receptor 2B (P41595 whole entry): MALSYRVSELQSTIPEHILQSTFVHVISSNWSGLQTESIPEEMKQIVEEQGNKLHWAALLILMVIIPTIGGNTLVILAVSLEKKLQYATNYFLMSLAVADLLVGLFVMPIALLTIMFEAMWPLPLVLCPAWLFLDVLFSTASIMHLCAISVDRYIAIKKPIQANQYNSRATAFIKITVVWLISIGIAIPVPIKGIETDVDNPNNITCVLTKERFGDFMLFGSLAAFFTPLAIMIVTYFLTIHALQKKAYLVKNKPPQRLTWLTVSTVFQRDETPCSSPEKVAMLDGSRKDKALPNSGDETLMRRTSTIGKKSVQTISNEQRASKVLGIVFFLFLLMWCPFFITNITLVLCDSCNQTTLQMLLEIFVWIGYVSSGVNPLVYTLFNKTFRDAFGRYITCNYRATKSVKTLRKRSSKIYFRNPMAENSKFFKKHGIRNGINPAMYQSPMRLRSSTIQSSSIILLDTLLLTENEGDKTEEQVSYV

[5] = target: Mu-type opioid receptor (Homo sapiens, UniProt P35372); assay: biochemical; format: functional
Sequence of Mu-type opioid receptor (P35372 whole entry): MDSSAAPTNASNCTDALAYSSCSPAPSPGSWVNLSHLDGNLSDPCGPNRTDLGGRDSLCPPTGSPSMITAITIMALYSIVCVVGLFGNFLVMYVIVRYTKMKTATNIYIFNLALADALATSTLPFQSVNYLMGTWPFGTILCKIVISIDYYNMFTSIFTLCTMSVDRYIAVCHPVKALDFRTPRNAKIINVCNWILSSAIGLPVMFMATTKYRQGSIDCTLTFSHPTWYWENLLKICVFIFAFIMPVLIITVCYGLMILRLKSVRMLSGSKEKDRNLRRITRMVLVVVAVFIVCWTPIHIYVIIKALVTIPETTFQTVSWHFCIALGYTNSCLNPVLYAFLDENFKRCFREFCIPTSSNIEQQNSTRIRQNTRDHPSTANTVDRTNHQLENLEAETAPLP

[6] = target: Cannabinoid receptor 1 (Homo sapiens, UniProt P21554); format: functional, cell-based
Sequence of Cannabinoid receptor 1 (P21554 whole entry): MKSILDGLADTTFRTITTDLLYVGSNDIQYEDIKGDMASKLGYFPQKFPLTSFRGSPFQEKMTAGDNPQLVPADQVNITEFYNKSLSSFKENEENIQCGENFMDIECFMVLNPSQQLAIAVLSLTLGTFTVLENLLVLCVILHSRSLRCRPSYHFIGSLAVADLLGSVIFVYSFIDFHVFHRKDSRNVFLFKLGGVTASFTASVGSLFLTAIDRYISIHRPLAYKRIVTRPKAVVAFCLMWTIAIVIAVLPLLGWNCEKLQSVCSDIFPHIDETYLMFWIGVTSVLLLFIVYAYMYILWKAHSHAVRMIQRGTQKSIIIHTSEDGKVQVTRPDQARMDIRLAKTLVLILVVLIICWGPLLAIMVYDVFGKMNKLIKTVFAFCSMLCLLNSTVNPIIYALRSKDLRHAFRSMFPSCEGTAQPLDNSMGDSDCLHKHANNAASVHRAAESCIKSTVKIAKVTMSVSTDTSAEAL

[7] = target: Beta-2 adrenergic receptor (Homo sapiens, UniProt P07550); format: functional, cell-based
Sequence of Beta-2 adrenergic receptor (P07550 whole entry): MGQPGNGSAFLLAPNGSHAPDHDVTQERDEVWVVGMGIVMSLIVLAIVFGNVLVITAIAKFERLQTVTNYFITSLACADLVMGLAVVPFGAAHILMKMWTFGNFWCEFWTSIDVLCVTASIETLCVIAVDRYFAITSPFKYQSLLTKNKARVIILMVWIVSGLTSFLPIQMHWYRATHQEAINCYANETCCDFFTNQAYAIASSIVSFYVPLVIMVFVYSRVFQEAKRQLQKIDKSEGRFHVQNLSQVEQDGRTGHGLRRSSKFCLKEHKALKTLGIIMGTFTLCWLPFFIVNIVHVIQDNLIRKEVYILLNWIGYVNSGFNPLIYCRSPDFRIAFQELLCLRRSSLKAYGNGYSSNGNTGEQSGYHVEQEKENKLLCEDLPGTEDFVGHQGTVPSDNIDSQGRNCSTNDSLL

[8] = target: T3, Progesterone receptor; format: functional
Further: assay procedure not described here.

SMILES | AC50 [1] [µM] | AC50 [2] [µM] | AC50 [3] [µM] | AC50 [4] [µM] | AC50 [5] [µM] | AC50 [6] [µM] | AC50 [7] [µM] | AC50 [8] [µM]
Cc1cnc(C(=O)NCCc2ccc(S(=O)(=O)NC(=O)NC3CCCCC3)cc2)cn1 [GLIPIZIDE] | > 30 | > 30 | > 30 | – | – | – | – | –
O=C(O)c1cn(C2CC2)c2cc(N3CCNCC3)c(F)cc2c1=O [CIPROFLOXACIN] | > 30 | > 30 | > 30 | – | – | – | – | –
CC(C(=O)O)c1ccc(-c2ccccc2)c(F)c1 (stereo not given) [FLURBIPROFEN] | > 30 | > 30 | – | > 10 | > 30 | – | – | –
CCCC(CCC)C(N)=O [VALPROMIDE] | > 30 | – | – | > 10 | – | > 30 | > 30 | –
CCOC(=O)C1=C(C)NC(C)=C(C(=O)OC)C1c1cccc([N+](=O)[O-])c1 (stereo not given) [NITRENDIPINE] | – | – | – | > 10 | – | > 30 | > 30 | –
CC(C)(C)NC[C@H](O)COc1cccc2c1CCCC2=O [LEVOBUNOLOL] | – | > 30 | > 30 | – | – | – | – | –
CC12CC3CC(C)(C1)CC(N)(C3)C2 [MEMANTINE] | > 30 | – | – | > 10 | – | > 30 | > 30 | –
O=[N+]([O-])c1ccc(O)c2ncccc12 [NITROXOLINE] | – | – | > 30 | > 30 | – | > 30 | > 30 | –
COCC1=C(C(=O)O)N2C(=O)[C@@H](NC(=O)/C(=N\OC)c3csc(N)n3)[C@H]2SC1 [CEFPODOXIME] | > 30 | – | – | > 30 | > 30 | > 30 | – | > 30
CCOC(=O)c1cncn1[C@H](C)c1ccccc1 [ETOMIDATE] | > 10 | – | – | > 10 | – | > 30 | > 30 | > 10
C[C@]12CCC(=O)C(O)=C1CC[C@@H]1[C@@H]2CC[C@]2(C)C(=O)CC[C@@H]12 [FORMESTANE] | > 30 | – | – | > 30 | > 30 | > 30 | – | 3.7
CCC(=O)O[C@H]1CC[C@H]2[C@@H]3CCC4=CC(=O)CC[C@]4(C)[C@H]3CC[C@]12C [TESTOSTERONE PROPIONATE] | 0.109 | – | – | > 10 | – | > 30 | > 30 | 0.328
CCCCC(=O)O[C@]1(C(=O)CO)[C@@H](C)C[C@H]2[C@@H]3CCC4=CC(=O)C=C[C@]4(C)[C@@]3(F)[C@@H](O)C[C@@]21C [BETAMETHASONE VALERATE] | 0.004 | – | – | > 10 | – | > 30 | > 30 | –
CNC1=Nc2ccc(Cl)cc2C(c2ccccc2)=[N+]([O-])C1 [CHLORDIAZEPOXIDE] | > 30 | – | – | > 10 | – | – | > 30 | –
Clc1ccc2c(N3CCN(CCCN4CCN(c5ccnc6cc(Cl)ccc56)CC4)CC3)ccnc2c1 [PIPERAQUINE] | > 30 | – | – | > 30 | > 30 | > 30 | – | > 30
COC(=O)c1ccc(O)cc1 [METHYLPARABEN] | – | > 30 | > 30 | – | – | – | – | –
CN1CCC(=C2c3ccccc3CCc3cccnc32)CC1 [AZATADINE] | – | – | – | 1.6 | – | > 30 | > 30 | –
CC(N)C(O)c1ccccc1 (stereo not given) [PHENYLPROPANOLAMINE] | > 30 | – | – | > 10 | – | > 30 | > 30 | –
Cc1cccc(N2CC(CO)OC2=O)c1 (stereo not given) [TOLOXATONE] | > 30 | – | – | > 30 | > 30 | > 30 | – | > 30
CC1(C)S[C@@H]2[C@H](NC(=O)[C@H](N)c3ccccc3)C(=O)N2[C@H]1C(=O)OCOC(=O)[C@@H]1N2C(=O)C[C@H]2S(=O)(=O)C1(C)C [SULTAMICILLIN] | > 30 | – | – | > 30 | > 30 | > 30 | – | > 30
CC(=O)O[C@]1(C(C)=O)CC[C@H]2[C@@H]3C=C(Cl)C4=CC(=O)CC[C@]4(C)[C@H]3CC[C@@]21C [CHLORMADINONE ACETATE] | – | > 30 | 0.003 | – | – | – | – | –

Reference: ChEMBL document CHEMBL5291721, “A preclinical secondary pharmacology resource illuminates target-adverse drug reaction associations of marketed drugs” (Nat Commun, 2023)
